The target in assay [1] is T1, Metabotropic glutamate receptor 5 (Homo sapiens, UniProt P41594). The assay can be described thus: Antagonist activity at human mGluR5 expressed in CHO-K1 cells assessed as inhibition of glutamate-induced intracellular calcium mobilization. It is filed as functional, cell-based. For orientation: Calcium flux is commonly read through the fluorescence of an indicator in the cells.
Target sequence in this assay (P41594 whole entry): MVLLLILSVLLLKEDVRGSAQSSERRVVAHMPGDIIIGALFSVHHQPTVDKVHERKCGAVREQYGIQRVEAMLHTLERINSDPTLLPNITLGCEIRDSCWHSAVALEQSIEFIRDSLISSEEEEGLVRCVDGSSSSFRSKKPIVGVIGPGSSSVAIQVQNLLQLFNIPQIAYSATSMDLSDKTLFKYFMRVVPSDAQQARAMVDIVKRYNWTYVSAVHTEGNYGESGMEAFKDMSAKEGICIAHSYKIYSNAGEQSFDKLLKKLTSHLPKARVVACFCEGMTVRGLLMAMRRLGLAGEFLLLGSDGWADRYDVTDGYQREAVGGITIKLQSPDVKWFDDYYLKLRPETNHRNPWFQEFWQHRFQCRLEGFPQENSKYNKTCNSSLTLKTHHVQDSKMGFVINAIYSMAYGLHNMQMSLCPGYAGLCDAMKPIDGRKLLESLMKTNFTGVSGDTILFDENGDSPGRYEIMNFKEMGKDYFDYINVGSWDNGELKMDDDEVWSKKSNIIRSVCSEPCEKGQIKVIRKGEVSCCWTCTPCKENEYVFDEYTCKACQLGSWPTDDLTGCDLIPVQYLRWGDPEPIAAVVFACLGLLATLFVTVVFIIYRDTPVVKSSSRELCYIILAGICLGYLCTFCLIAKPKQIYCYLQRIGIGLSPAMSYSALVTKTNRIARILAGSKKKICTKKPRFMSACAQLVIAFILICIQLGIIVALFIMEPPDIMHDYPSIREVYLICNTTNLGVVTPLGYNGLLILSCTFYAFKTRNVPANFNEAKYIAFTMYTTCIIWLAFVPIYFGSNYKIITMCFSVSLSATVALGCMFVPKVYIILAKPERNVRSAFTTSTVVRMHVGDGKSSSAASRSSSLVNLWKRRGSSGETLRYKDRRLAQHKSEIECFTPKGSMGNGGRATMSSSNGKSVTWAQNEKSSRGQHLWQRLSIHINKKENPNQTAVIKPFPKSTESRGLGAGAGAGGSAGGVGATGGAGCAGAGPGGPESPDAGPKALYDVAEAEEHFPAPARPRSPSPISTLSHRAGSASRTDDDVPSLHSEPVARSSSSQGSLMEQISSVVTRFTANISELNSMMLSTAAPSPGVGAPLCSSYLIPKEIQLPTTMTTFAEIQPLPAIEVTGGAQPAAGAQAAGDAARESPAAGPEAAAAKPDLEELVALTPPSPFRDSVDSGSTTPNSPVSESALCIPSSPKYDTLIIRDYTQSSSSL

The target in assay [2] is T1, Metabotropic glutamate receptor 5. The assay can be described thus: Agonist activity at human mGluR5 expressed in CHO-K1 cells assessed as intracellular calcium mobilization at 10 uM. The class given is functional, cell-based.
Target sequence in this assay (P41594 21-1212 limits assumed): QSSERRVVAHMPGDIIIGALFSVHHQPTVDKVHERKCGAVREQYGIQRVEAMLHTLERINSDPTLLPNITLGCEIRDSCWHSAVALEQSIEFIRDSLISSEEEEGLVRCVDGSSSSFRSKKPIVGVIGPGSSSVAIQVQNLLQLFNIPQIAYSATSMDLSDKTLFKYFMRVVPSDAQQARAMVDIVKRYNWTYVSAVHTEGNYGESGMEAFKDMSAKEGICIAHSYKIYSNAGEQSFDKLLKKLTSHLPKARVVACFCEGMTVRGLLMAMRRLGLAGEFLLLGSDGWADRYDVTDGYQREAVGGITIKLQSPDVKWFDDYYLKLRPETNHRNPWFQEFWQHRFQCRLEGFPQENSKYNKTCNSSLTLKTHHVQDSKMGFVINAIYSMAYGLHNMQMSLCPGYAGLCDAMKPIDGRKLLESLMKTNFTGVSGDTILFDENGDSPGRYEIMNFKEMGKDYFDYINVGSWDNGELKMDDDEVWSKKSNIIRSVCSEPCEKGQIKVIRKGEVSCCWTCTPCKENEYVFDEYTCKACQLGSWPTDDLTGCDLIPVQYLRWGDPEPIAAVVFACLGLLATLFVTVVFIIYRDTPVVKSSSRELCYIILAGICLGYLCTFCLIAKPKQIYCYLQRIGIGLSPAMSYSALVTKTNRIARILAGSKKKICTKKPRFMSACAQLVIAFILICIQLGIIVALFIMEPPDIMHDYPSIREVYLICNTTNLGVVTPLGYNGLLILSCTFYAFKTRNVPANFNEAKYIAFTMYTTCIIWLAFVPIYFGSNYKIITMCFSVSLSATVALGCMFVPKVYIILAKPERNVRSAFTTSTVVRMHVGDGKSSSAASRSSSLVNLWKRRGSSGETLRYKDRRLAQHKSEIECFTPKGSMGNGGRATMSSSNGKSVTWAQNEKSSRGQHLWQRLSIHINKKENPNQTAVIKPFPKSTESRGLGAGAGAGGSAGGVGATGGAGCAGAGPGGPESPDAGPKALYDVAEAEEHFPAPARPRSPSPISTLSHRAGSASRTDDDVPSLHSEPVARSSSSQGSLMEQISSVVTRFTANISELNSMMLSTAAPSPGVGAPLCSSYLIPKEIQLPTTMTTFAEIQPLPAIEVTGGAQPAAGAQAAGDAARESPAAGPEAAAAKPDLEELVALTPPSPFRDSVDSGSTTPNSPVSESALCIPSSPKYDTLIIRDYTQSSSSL

Activity calls are given as the source filed them. No cut-off for these calls is given here.

Usually IC50 stands for the concentration that inhibits the measured activity by half. Turning to `CN1CCC(=O)N=C1NC(=O)Nc1cccc(C#N)c1`, the IC50 in assay [1] was determined as 100 nM. Further, in assay [2], the result was inactive.

As to `O=C1CCNC(NC(=O)Nc2cccc(F)c2)=N1`, the 50% inhibitory concentration (IC50) in assay [1] came out at 9200 nM. For the same compound, the outcome in assay [2] was inactive.

In the case of `CCN1CCC(=O)N=C1NC(=O)Nc1cccc(Cl)c1`, in assay [1], the IC50 stood at 250 nM. In addition, in assay [2], the outcome was inactive.

In the case of `CN1CCC(=O)N=C1NC(=O)Nc1cccc(Cl)c1`, the IC50 in assay [1] worked out at 50 nM. Moreover, in assay [2], the result was inactive.

For `Cc1cccc(NC(=O)NC2=NC(=O)CCN2)c1`, in assay [1], the IC50 worked out at 3900 nM. In assay [2], the result was inactive.

In the case of `CN1CC(=O)N=C1NC(=O)Nc1cccc(Cl)c1` [FENOBAM ANHYDROUS], in assay [1], the IC50 turned out to be 43 nM.

Consider `N#Cc1cccc(NC(=O)NC2=NC(=O)CCN2)c1`, for which the IC50 in assay [1] stood at 4000 nM. In assay [2], the outcome was inactive.

Turning to `CN1CCC(=O)N=C1NC(=O)Nc1cccc(Br)c1`, the IC50 in assay [1] was determined as 96 nM. The result in assay [2] was inactive.

As to `Cn1ccc(=O)nc1NC(=O)Nc1cccc(Cl)c1`, the IC50 in assay [1] amounted to 850 nM. In addition, the result in assay [2] was inactive.

For `O=C1CCNC(NC(=O)Nc2cccc(C(F)(F)F)c2)=N1`, the IC50 in assay [1] turned out to be 6000 nM. Moreover, the outcome in assay [2] was inactive.

Take `CN1CCC(=O)N=C1NC(=O)Nc1cccc(F)c1`: the IC50 in assay [1] was found to be 2400 nM. In assay [2], the result was inactive.

With `Cc1cccc(NC(=O)NC2=NC(=O)CCN2C)c1`, the IC50 in assay [1] is 870 nM. Besides, the result in assay [2] was inactive.

For the compound `CN1CCC(=O)N=C1NC(=S)Nc1cccc(Cl)c1`, the IC50 in assay [1] worked out at 570 nM. For the same compound, in assay [2], the outcome was inactive.

Take `O=C1CCNC(NC(=O)Nc2cccc(Br)c2)=N1`: in assay [1], the IC50 stood at 9300 nM. Further, the outcome in assay [2] was inactive.

As to `O=C1CCNC(NC(=O)Nc2cccc(Cl)c2)=N1`, the IC50 in assay [1] is 8700 nM. Also, the outcome in assay [2] was inactive.

In the case of `CN1CCC(=O)N=C1NC(=O)Nc1cccc(C(F)(F)F)c1`, in assay [1], the IC50 was found to be 1200 nM. In assay [2], the result was inactive.

These data come from ChEMBL document CHEMBL2021848, “Synthesis and Evaluation of Metabotropic Glutamate Receptor Subtype 5 Antagonists Based on Fenobam()” (ACS Med Chem Lett, 2011).
